Experimental data as given in patent US7432306B2, “Method for preparing novel transcription factors and use” (NRL Pharma, Inc., priority 2005, dated 2008).

Tests used:
[1] = cited from earlier work
[2] = cited from earlier work; remark: listed apart in the source
C57BL ksj (db/db) = details: hereditary obese diabetic mouse C57BL ksj (db/db); cited from earlier work
ICR male mice [3] = test: Syngeneic Langerhans islet transplanted streptozotocin diabetic mouse; assay type: in vivo
Method: Thirty 5-week-old ICR male mice were randomly classified into six groups and all mice were fed for one week by allowing mouse standard diet CE-2 (a product of Japan CLEA Co., Ltd.). Then, the mice in the first to third groups were intravenously injected with 50 mg/kg of streptozotocin and after one week, blood was collected from the orbit and the blood sugar and the serum insulin were determined to confirm the onset of insulin-dependent diabetes. Ten days after the streptozotocin injection, pancreatic Langerhans islets were removed from the age-matched normal mice in the fourth to sixth groups and 20 pancreatic Langerhans islets were subcutaneously transplanted in the back of each of the diabetic mice. Immediately after transplantation, diet CE-2 containing 0.1% of MAC-DE was given to the first group, diet CE-2 containing 0.05% of MAC-DE was given to the second group and CE-2 was given to the third group. The diabetic mice were further fed for 60 days, and blood was collected from the orbit and the blood sugar and the serum insulin were determined every 15 days.

db/db mice = test: Action of MAC-DEA on db/db mouse; assay type: in vivo; details: for Blood Sugar / Serum Insulin / Serum Neutral Fat: db/db mice
Method: Eighteen 7-week-old male db/db mice were bred for one week by allowing mouse standard feed and water ad libitum. The mice were randomly classified into three groups of six mice and each group was housed in a urine collection rat cage and the intake of feed, the amount of drinking water, the amount of urine and the amount of urine sugar excreted were determined everyday. Feed CE-2 was given to the first group as a control group, and feed CE-2 mixed with 0.05% of 4-O-methylascochlorin diethylacetal (MAC-DEA) and feed CE-2 mixed with 0.1% of MAC-DEA were given to the second group and the third group, respectively. The mice were allowed feed and drinking water ad libitum and on the 7th day, blood was collected and the blood sugar, the serum neutral fat and the serum insulin were determined.

ICR male mice [4] = test: Mouse serum cholesterol lowering action; assay type: in vivo; details: one week; for Total Cholesterol in Serum: ICR mice; for Rate of Change (total cholesterol in serum): vs control
Method: Thirty 5-week-old ICR male mice were bred by allowing mouse standard feed and water ad libitum. The mice were randomly classified into three groups, and one group was taken as a control group to which no drug was administered, and feed containing 0.1% of 4-O-methylasco-chlorin diethylacetal (MAC-DEA) and feed containing 0.05% of MAC-DEA were given to the other two groups, respectively. The body weight, the intake of feed and the amount of drinking water were measured every other day. One week after giving feed, blood was collected and the total cholesterol in serum and the neutral fat were determined.

[5] = test system: Ehrlich ascites carcinoma; test: Inhibition of Ehrlich solid tumor; assay type: in vivo, mouse; details: 7 days, 21st day
Method: Eighteen five-week-old ICR male mice were subcutaneously inoculated with 10^6 cells of Ehrlich ascites carcinoma […] and after 24 hours, and the mice were classified into three groups of six mice, and 4-O-methylascochlorin diethylacetal (MAC-DE) was suspended in 0.2% Tween-80 and 1 mg/kg and 4 mg/kg were orally administered to the first group and the second group twice a day at 9:00 and 20:00, respectively, and a MAC-DE-free Tween-80 aqueous solution was given to the third group as a control group. The administration was continued for successive 7 days and after completion of the administration, the mice were fed for two weeks. On the 21st day, a nodular tumor was removed from the mice and the body weight was determined and the effect of MAC-DE on the inhibition of tumor growth was examined.

ddY male mice = test: Internal fat accumulation in ddY mice fed 13 weeks; assay type: in vivo, mouse; details: livers and epididymal adipose tissues
Description: Thirty 5-week-old ddY male mice were randomly classified into three groups of ten mice and fed for 13 weeks by allowing feed and water ad libidum. Meanwhile, the mouse standard diet CE-2 (a product of Japan CLEA Co., Ltd.) was given to the first group, and diet CE-2 containing 0.1% of 4-O-methylascochlorin diethylacetal (MAC-DE) was given to the second group of mice and diet CE-2 containing 0.05% of MAC-DE was given to the third group. […] After 13 weeks, the livers and the epididymal adipose tissues were removed from the mice and lipid was extracted by the Folch method and the triglyceride content was determined. As a result, the triglyceride content in the 0.05% MAC-DE group was reduced 27%, and the neutral fat content in the 0.1% MAC-DE group was reduced 35%. From this fact it would be understood that MAC-DE inhibits internal fat accumulation.

ICR male mice [6] = test: Fat accumulation in ICR mice fed 13 weeks; assay type: in vivo, mouse; details: liver and epididymal adipose tissue
Description: Thirty 5-week-old ICR male mice were randomly classified into three group of ten mice, and mouse standard diet CE-2 (a product of Japan CLEA Co., Ltd.) was given to the first group, and diet CE-2 containing 0.1% of 4-O-methylascochlorin diethylacetal (MAC-DE) was given to the second group and diet CE-2 containing 0.05% of MAC-DE was given to the third group and the mice were continued to be fed. […] After 13 weeks, the liver and the epididymal adipose tissue were removed from the mice and lipid was extracted by the Folch method and the triglyceride content was determined. As a result, the triglyceride content in the 0.05% MAC-DE group was reduced 27%, and the triglyceride content in the 0.1% MAC-DE group was reduced 35%. From this fact it would be understood that MAC-DE inhibits fat accumulation.

For `CC(C=CC1(C)C(C)CCC(=O)C1C)=CCc1c(O)c(C=O)c(C)c(Cl)c1OCC(=O)O` (centres unmarked) [AS-6, 4-O-carboxymethylasco-chlorin], the “soluble in water at a concentration” value ([1]; pH of 7.2 to 7.7 in the small intestine) is given as no less than 6%, the “toxicity to the liver” value ([2]; oral, blood concentration quickly rises) is given as “the toxicity to the liver is easily exhibited” and the excretion ([2]; orally administered to an animal) is given as “quickly excreted”. The carbohydrate metabolism (C57BL ksj (db/db)) was “improves in the carbohydrate metabolism”.

For `CCOC(OCC)c1c(C)c(Cl)c(OC)c(C/C=C(C)/C=C/[C@@]2(C)[C@H](C)CCC(=O)[C@@H]2C)c1O` [MAC-DEA, 4-O-methylascochlorin diethylacetal], the “Blood Sugar” value (ICR male mice [3]; 0.05% in diet CE-2, Day 0) was 566 mg/dL, the Insulin (ICR male mice [3]; 0.05% in diet CE-2, Day 0) was <2 ·U/ml and the “Blood Sugar” value (ICR male mice [3]; 0.05% in diet CE-2, Day 15) was 143 mg/dL. For the same compound, the Insulin (ICR male mice [3]; 0.05% in diet CE-2, Day 15) was 5 ·U/ml, the “Blood Sugar” value (ICR male mice [3]; 0.05% in diet CE-2, Day 30) was 148 mg/dL and the Insulin (ICR male mice [3]; 0.05% in diet CE-2, Day 30) was 5 ·U/ml. The “Blood Sugar” value (ICR male mice [3]; 0.05% in diet CE-2, Day 45) was 125 mg/dL, the Insulin (ICR male mice [3]; 0.05% in diet CE-2, Day 45) was 6 ·U/ml and the “Blood Sugar” value (ICR male mice [3]; 0.05% in diet CE-2, Day 60) was 118 mg/dL. The Insulin (ICR male mice [3]; 0.05% in diet CE-2, Day 60) was 6 ·U/ml, the “Blood Sugar” value (ICR male mice [3]; 0.1% in diet CE-2, Day 0) was 583 mg/dL and the Insulin (ICR male mice [3]; 0.1% in diet CE-2, Day 0) was <2 ·U/ml. The “Blood Sugar” value (ICR male mice [3]; 0.1% in diet CE-2, Day 15) was 121 mg/dL, the Insulin (ICR male mice [3]; 0.1% in diet CE-2, Day 15) was 5 ·U/ml and the “Blood Sugar” value (ICR male mice [3]; 0.1% in diet CE-2, Day 30) was 118 mg/dL. The Insulin (ICR male mice [3]; 0.1% in diet CE-2, Day 30) was 6 ·U/ml, the “Blood Sugar” value (ICR male mice [3]; 0.1% in diet CE-2, Day 45) was 119 mg/dL and the Insulin (ICR male mice [3]; 0.1% in diet CE-2, Day 45) was 6 ·U/ml. For the same compound, the “Blood Sugar” value (ICR male mice [3]; 0.1% in diet CE-2, Day 60) was 131 mg/dL, the Insulin (ICR male mice [3]; 0.1% in diet CE-2, Day 60) was 6 ·U/ml and the “Blood Sugar” value (db/db mice; 0.05% in feed CE-2, 7th day) was 273 mg/dL. For the same compound, the “Serum Insulin” value (db/db mice; 0.05% in feed CE-2, 7th day) was 175 ·U/ml, the “Serum Neutral Fat” value (db/db mice; 0.05% in feed CE-2, 7th day) was 259 mg/dL and the “Amount of Drinking Water” value (db/db mice; 0.05% in feed CE-2, db/db mice) was 5.4 ml/mouse. For the same compound, the “Amount of Urine” value (db/db mice; 0.05% in feed CE-2, db/db mice) was 2.5 ml/mouse, the “Amount of Urine Sugar Excreted” value (db/db mice; 0.05% in feed CE-2, db/db mice) was 47 mg/dL and the “Blood Sugar” value (db/db mice; 0.1% in feed CE-2, 7th day) was 239 mg/dL. The “Serum Insulin” value (db/db mice; 0.1% in feed CE-2, 7th day) was 132 ·U/ml, the “Serum Neutral Fat” value (db/db mice; 0.1% in feed CE-2, 7th day) was 248 mg/dL and the “Amount of Drinking Water” value (db/db mice; 0.1% in feed CE-2, db/db mice) was 3.2 ml/mouse. For the same compound, the “Amount of Urine” value (db/db mice; 0.1% in feed CE-2, db/db mice) was 1.7 ml/mouse, the “Amount of Urine Sugar Excreted” value (db/db mice; 0.1% in feed CE-2, db/db mice) was 10 mg/dL and the “Total Cholesterol in Serum” value (ICR male mice [4]; 0.05% in feed) was 97 mg/dL. For the same compound, the “Rate of Change (total cholesterol in serum)” value (ICR male mice [4]; 0.05% in feed) was −17.8%, the “Total Cholesterol in Serum” value (ICR male mice [4]; 0.1% in feed) was 90 mg/dL and the “Rate of Change (total cholesterol in serum)” value (ICR male mice [4]; 0.1% in feed) was −23.7%. The “Inhibition Ratio (tumor)” value ([5]; 1 mg/kg oral twice a day) was 81%, the “Weight of Tumor” value ([5]; 1 mg/kg oral twice a day) was 0.25 g/mouse and the “Inhibition Ratio (tumor)” value ([5]; 4 mg/kg oral twice a day) was 96%. For the same compound, the “Weight of Tumor” value ([5]; 4 mg/kg oral twice a day) was 0.06 g/mouse, the “triglyceride content, reduction” value (ddY male mice; 0.05% in diet) was 27% and the “neutral fat content, reduction” value (ddY male mice; 0.1% in diet) was 35%. For the same compound, the “triglyceride content, reduction” value (ICR male mice [6]; 0.05% in diet) was 27% and the “triglyceride content, reduction” value (ICR male mice [6]; 0.1% in diet) was 35%.

For `COc1c(Cl)c(C)c(C=O)c(O)c1C/C=C(C)/C=C/[C@@]1(C)[C@H](C)CCC(=O)[C@@H]1C` [MAC, 4-O-Methylascochlorin], the solubility in water [1] is listed as “less than 0.7 μg/ml” and the bioavailability ([2]; oral, animals) is listed as “very poor bioavailability”.
